Calls of active or inactive are those of the source. The calls are words filed in the database; no cut-off is given here.
Columns and labels:
[1] = biological target: T1, Orexin/Hypocretin receptor type 1 (Homo sapiens, UniProt O43613); experiment: Antagonist activity against human orexin 1 receptor expressed in CHO cells assessed as effect in calcium mobilization by FLIPR assay; assay type: functional, cell-based
T1 sequence (O43613 whole entry): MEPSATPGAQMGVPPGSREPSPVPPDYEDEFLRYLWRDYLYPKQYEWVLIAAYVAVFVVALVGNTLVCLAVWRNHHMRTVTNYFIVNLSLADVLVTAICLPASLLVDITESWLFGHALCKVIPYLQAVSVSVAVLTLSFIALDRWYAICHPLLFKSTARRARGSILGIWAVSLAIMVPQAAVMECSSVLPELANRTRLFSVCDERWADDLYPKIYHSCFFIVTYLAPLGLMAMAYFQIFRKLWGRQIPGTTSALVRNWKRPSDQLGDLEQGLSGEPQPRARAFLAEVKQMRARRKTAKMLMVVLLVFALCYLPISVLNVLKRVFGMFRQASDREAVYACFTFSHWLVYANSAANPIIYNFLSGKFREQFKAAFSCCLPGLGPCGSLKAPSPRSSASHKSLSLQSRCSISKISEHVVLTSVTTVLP

[2] = biological target: T2, Orexin receptor type 2 (Homo sapiens, UniProt O43614); experiment: Antagonist activity against human orexin 2 receptor expressed in CHO cells assessed as effect in calcium mobilization by FLIPR assay; assay type: functional, cell-based
T2 sequence (O43614 whole entry): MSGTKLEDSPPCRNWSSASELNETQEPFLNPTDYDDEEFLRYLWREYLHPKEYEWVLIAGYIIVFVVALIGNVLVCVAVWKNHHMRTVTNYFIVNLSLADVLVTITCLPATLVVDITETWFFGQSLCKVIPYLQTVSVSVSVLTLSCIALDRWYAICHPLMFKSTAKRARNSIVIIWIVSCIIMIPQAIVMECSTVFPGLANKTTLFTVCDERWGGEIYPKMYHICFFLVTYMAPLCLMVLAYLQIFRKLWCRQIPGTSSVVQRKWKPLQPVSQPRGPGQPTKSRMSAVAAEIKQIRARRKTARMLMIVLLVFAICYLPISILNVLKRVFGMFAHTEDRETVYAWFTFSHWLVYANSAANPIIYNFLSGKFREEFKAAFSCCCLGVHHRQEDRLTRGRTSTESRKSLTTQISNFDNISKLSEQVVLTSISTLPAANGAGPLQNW

[3] = biological target: T3, Orexin receptor type 2 (Rattus norvegicus) (UniProt P56719); experiment: Antagonist activity against rat orexin 2 receptor expressed in RBL cells by [3H]inositol phosphate accumulation assay; assay type: functional, cell-based
T3 sequence (whole entry): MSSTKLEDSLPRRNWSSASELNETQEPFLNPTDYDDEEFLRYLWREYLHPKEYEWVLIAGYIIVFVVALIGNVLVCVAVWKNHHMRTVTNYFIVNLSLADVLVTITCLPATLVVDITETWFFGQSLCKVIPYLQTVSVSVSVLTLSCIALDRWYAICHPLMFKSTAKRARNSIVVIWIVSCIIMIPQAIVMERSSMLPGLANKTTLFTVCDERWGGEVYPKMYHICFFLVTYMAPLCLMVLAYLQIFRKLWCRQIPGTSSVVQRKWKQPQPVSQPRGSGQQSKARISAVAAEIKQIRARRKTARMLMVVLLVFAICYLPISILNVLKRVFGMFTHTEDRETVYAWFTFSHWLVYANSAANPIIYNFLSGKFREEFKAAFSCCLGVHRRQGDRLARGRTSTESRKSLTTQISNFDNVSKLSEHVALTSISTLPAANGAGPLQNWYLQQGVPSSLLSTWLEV

[4] = biological target: T4, Orexin/Hypocretin receptor type 1 (Rattus norvegicus) (UniProt P56718); experiment: Antagonist activity against rat orexin 1 receptor expressed in RBL cells by [3H]inositol phosphate accumulation assay; assay type: functional, cell-based
T4 sequence (whole entry): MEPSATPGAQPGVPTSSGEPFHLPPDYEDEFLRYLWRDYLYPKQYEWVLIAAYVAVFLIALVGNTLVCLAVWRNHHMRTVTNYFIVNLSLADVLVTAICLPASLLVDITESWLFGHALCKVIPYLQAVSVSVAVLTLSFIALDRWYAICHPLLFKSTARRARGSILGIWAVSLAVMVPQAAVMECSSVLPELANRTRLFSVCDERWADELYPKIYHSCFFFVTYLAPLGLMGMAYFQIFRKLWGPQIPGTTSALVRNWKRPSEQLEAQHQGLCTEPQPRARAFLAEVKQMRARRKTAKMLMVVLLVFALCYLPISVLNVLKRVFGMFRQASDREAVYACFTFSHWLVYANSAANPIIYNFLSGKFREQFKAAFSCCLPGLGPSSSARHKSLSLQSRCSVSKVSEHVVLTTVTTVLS

[5] = biological target: T5, Cytochrome P450 1A2 (Homo sapiens, UniProt P05177); experiment: Inhibition of CYP1A2 by CYPEX bactosome P450 inhibition assay; assay type: ADME
T5 sequence (P05177 whole entry): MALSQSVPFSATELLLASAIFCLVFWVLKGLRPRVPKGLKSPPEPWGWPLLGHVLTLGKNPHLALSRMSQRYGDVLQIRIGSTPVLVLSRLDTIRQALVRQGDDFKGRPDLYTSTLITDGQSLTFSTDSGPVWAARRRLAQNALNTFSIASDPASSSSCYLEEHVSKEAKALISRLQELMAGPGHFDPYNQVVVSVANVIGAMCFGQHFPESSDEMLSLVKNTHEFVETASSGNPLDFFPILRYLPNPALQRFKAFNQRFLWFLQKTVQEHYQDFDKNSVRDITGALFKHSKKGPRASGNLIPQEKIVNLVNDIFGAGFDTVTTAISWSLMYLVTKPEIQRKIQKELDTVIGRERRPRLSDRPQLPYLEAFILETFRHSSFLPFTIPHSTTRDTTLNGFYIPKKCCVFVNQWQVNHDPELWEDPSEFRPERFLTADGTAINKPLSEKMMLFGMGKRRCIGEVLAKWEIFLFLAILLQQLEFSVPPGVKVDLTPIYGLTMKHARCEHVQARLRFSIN

[6] = biological target: Cytochrome P450 2C9 (Homo sapiens, UniProt P11712); experiment: Inhibition of CYP2C9 by CYPEX bactosome P450 inhibition assay; assay type: ADME
[7] = biological target: Cytochrome P450 2C19 (Homo sapiens, UniProt P33261); experiment: Inhibition of CYP2C19 by CYPEX bactosome P450 inhibition assay; assay type: ADME
[8] = biological target: Cytochrome P450 2D6 (Homo sapiens, UniProt P10635); experiment: Inhibition of CYP2D6 by CYPEX bactosome P450 inhibition assay; assay type: ADME
[9] = biological target: T6, Cytochrome P450 3A4 (Homo sapiens, UniProt P08684); experiment: Inhibition of CYP3A4 by CYPEX bactosome P450 inhibition assay; assay type: ADME
[10] = biological target: T6, Cytochrome P450 3A4; experiment: Inhibition of CYP3A4 using DEF substrate by CYPEX bactosome P450 inhibition assay; assay type: ADME

T6 sequence (P08684 whole entry): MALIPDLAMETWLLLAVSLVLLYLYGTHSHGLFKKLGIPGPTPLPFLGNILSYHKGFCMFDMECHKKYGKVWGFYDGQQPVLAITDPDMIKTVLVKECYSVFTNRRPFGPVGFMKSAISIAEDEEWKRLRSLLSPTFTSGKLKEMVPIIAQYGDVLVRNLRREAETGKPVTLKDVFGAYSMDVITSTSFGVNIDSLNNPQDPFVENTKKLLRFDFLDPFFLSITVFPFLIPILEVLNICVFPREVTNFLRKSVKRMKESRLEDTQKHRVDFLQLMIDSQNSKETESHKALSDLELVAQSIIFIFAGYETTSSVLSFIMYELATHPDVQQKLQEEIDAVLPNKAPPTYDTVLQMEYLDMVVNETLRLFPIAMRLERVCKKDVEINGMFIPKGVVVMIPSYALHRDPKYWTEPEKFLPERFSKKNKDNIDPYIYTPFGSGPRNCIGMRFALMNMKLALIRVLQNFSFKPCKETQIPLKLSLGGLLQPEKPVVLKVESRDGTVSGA
Sequence of Cytochrome P450 2D6 (P10635 whole entry): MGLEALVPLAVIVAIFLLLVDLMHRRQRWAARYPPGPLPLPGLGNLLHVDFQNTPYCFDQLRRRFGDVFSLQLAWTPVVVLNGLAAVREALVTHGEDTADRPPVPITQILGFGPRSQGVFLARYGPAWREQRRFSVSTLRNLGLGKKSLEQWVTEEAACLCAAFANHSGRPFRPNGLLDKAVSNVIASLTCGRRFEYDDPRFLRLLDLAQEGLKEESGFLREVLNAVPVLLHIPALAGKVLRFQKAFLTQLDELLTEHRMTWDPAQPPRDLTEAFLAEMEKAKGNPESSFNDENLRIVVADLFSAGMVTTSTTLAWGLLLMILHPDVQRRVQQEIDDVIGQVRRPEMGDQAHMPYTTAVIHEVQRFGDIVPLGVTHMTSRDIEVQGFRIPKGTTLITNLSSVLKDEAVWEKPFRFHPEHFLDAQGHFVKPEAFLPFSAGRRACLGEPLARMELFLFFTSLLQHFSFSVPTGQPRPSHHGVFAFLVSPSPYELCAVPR
Sequence of Cytochrome P450 2C9 (P11712 whole entry): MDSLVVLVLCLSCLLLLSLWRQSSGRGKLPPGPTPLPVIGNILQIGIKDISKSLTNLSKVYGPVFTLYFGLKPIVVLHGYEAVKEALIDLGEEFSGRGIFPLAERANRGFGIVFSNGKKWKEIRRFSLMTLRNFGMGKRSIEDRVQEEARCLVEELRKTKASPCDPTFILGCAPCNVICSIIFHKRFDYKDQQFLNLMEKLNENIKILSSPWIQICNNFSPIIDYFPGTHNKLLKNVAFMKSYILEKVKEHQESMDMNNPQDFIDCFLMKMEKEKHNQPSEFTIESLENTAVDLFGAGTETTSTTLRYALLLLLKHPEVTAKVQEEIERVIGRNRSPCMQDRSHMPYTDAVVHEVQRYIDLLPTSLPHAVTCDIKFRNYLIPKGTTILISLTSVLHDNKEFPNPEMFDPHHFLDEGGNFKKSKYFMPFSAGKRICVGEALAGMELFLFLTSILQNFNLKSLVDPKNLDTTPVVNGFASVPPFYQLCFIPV
Sequence of Cytochrome P450 2C19 (P33261 whole entry): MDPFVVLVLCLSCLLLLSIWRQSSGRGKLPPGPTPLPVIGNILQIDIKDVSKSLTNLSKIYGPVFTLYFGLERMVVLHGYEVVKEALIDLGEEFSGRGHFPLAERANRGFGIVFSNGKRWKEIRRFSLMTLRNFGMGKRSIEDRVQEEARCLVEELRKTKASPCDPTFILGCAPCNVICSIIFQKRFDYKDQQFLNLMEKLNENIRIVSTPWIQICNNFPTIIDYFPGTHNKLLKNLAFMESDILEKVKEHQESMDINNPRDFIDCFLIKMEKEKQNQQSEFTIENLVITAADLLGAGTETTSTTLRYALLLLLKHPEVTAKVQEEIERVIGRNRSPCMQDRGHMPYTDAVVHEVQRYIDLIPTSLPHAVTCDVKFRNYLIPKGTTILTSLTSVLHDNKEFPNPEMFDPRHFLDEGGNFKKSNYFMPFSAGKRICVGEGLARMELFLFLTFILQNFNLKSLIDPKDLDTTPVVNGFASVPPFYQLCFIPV

Ki [1] | Ki [2] | SMILES | also measured
> 15.8 µM | > 15.8 µM | Cc1ccccc1NC(=O)CSc1nnc(-c2ccoc2C)n1Cc1ccco1 | 
> 15.8 µM | > 15.8 µM | Cc1cccc(C)c1NC(=O)CSc1nnc(-c2ccoc2C)n1Cc1ccco1 | 
0.794 µM | 0.00158 µM | Cc1cc(C)cc(NC(=O)CSc2nnc(-c3ccoc3C)n2Cc2ccco2)c1 | inhibition [3]: Active; inhibition [4]: Active; IC50 [5]: > 5 µM; IC50 [6]: > 5 µM; IC50 [7]: > 5 µM; IC50 [8]: > 5 µM; IC50 [9]: > 5 µM; IC50 [10]: 2 µM
0.000316 µM | 0.000398 µM | Cc1nc(C(=O)N2CCCC[C@H]2CNC(=O)c2cccc3occc23)c(-c2ccc(F)cc2)s1 [SB-649868] | 
> 15.8 µM | > 15.8 µM | Cc1occc1-c1nnc(SCC(N)=O)n1Cc1ccco1 | 
> 15.8 µM | 0.251 µM | Cc1occc1-c1nnc(SCC(=O)Nc2cccc(-c3ccc4c(c3)OCO4)c2)n1Cc1ccco1 | 
3.16 µM | 0.316 µM | CC(=O)c1cccc(NC(=O)CSc2nnc(-c3ccoc3C)n2Cc2ccco2)c1 | 
> 15.8 µM |  | Cc1ccc(C)c(NC(=O)CSc2nnc(-c3ccoc3C)n2Cc2ccco2)c1 | 
> 15.8 µM | 0.1 µM | Cc1csc(NC(=O)CSc2nnc(-c3ccoc3C)n2Cc2ccco2)n1 | 
> 15.8 µM | 0.398 µM | Cc1cc(C)cc(N(C(=O)CSc2nnc(-c3ccoc3C)n2Cc2ccco2)c2ccccn2)c1 | 
> 15.8 µM | 0.501 µM | COc1ccccc1NC(=O)CSc1nnc(-c2ccoc2C)n1Cc1ccco1 | 
> 15.8 µM | 0.631 µM | Cc1cc(C)cc(N(C(=O)CSc2nnc(-c3ccoc3C)n2Cc2ccco2)C2CNCCN2)c1 (stereo not given) | 

More lines, now with the values behind:

SMILES | Ki [1] | Ki [2] | also measured
COc1ccc(NC(=O)CSc2nnc(-c3ccoc3C)n2Cc2ccco2)cc1 | > 15.8 µM | 0.2 µM | 
Cc1ccc(NC(=O)CSc2nnc(-c3ccoc3C)n2Cc2ccco2)cc1C | 0.631 µM | 0.00251 µM | 
Cc1occc1-c1nnc(SCC(=O)Nc2cccc(F)c2)n1Cc1ccco1 | > 15.8 µM | 0.501 µM | 
Cc1occc1-c1nnc(SCC(=O)Nc2ccccc2F)n1Cc1ccco1 | > 15.8 µM | 2 µM | 
Cc1occc1-c1nnc(SCC(=O)Nc2ccc(F)c(Cl)c2)n1Cc1ccco1 | 1 µM | 0.0398 µM | 
Cc1occc1-c1nnc(SCC(=O)Nc2ccc(F)cc2)n1Cc1ccco1 | > 15.8 µM | 0.158 µM | 
Cc1cccc(NC(=O)CSc2nnc(-c3ccoc3C)n2Cc2ccco2)c1 | 2.51 µM | 0.0501 µM | 
Cc1cc(C)cc(N(C(=O)CSc2nnc(-c3ccoc3C)n2Cc2ccco2)c2cccnc2)c1 | > 15.8 µM | 2 µM | 
Cc1occc1-c1nnc(SCC(=O)Nc2ccc(Cl)cc2)n1Cc1ccco1 | 2 µM | 0.1 µM | 
CCC(C)NC(=O)CSc1nnc(-c2ccoc2C)n1Cc1ccco1 (stereo not given) | > 15.8 µM | > 15.8 µM | 
Cc1occc1-c1nnc(SCC(=O)NCCc2ccccc2)n1Cc1ccco1 | > 15.8 µM | 1.58 µM | 
CC(=O)c1ccc(NC(=O)CSc2nnc(-c3ccoc3C)n2Cc2ccco2)cc1 | 2.51 µM | 0.0316 µM | 
Cc1nnc(NC(=O)CSc2nnc(-c3ccoc3C)n2Cc2ccco2)s1 | > 15.8 µM | 0.398 µM | 
Cc1occc1-c1nnc(SCC(=O)Nc2cccc(Cl)c2)n1Cc1ccco1 | 2 µM | 0.0631 µM | 
Cc1occc1-c1nnc(SCC(=O)NN2CCc3ccccc32)n1Cc1ccco1 | > 15.8 µM | 1 µM | 
Cc1occc1-c1nnc(SCC(=O)Nc2ccc(N(C)C)cc2)n1Cc1ccco1 | 0.794 µM | 0.158 µM | 
Cc1occc1-c1nnc(SCC(=O)Nc2ccccc2)n1Cc1ccco1 | > 15.8 µM | 1 µM | 
COc1ccc(C)cc1NC(=O)CSc1nnc(-c2ccoc2C)n1Cc1ccco1 | 2.51 µM | 0.0158 µM | 
Cc1ccc(NC(=O)CSc2nnc(-c3ccoc3C)n2Cc2ccco2)cc1 | > 15.8 µM | 0.0398 µM | 
Cc1cccc(NC(=O)CSc2nnc(-c3ccoc3C)n2Cc2ccco2)c1C | > 15.8 µM | > 15.8 µM | 
Cc1occc1-c1nnc(SCC(=O)Nc2nccs2)n1Cc1ccco1 | > 15.8 µM | 1 µM | 
Cc1ccc(NC(=O)CSc2nnc(-c3ccoc3C)n2Cc2ccco2)c(C)c1 | 1.26 µM | 0.501 µM | 

Reference: ChEMBL document CHEMBL1268981, “2-Methyl-3-furanyl-4H-1,2,4-triazol-3-ylthioamides: a new class of selective orexin 2 antagonists” (Bioorg Med Chem Lett, 2010)
